According to patent US9012651B2, “TRPV3 modulators” (AbbVie Inc., priority 2011, dated 2015):

target: human TRPV3 receptors (Homo sapiens (Human), UniProt Q8NET8); experiment: Calcium flux assay (FLIPR TETRA), inhibition of the 2-APB response; assay type: cell-based; settings: recombinant HEK293 cells stably expressing TRPV3, Calcium-4 dye, 2-APB at its EC80
Summary of the method: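 HEK293 cells stably expressing human and mouse TRPV3, plated the day before and dye-loaded 90-120 min in the dark, read on FLIPR Tetra. Peak fluorescence increase over baseline was expressed as percent of the maximal 2-APB response without compound.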

human TRPV3 receptors, sequence (Q8NET8 whole entry): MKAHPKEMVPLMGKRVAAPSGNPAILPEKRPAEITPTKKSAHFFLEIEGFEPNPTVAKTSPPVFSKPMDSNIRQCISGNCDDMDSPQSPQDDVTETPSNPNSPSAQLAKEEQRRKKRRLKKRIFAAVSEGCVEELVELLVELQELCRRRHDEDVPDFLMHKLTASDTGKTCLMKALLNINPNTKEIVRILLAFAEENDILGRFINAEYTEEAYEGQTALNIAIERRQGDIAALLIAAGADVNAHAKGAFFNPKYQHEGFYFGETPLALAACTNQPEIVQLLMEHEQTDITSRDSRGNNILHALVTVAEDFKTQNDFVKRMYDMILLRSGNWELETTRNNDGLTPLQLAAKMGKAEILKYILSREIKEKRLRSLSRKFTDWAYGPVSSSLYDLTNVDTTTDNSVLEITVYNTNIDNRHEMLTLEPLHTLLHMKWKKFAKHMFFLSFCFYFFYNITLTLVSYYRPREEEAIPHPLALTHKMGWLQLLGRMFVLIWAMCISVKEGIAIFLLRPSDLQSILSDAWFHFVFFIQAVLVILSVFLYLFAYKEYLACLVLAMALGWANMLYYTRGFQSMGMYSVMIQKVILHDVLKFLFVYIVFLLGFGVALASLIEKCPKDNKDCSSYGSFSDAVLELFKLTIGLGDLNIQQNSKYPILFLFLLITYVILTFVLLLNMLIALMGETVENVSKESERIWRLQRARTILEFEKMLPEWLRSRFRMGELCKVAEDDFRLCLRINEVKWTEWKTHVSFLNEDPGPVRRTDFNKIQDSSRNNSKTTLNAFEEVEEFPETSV

| IC50 [µM] | SMILES |
| --- | --- |
| 0.34 | CC(C)[C@H](CO)NCc1nc([C@H]2CC[C@@H](C(F)(F)F)CC2)ccc1F [Example 257, (2R)-2-[({3-fluoro-6-[cis-4-(trifluoromethyl)cyclohexyl]pyridin-2-yl}methyl)amino]-3-methylbutan-1-ol] |
| 0.58 | OCC1(NCc2cccc(-c3ccc(C(F)(F)F)cc3C(F)(F)F)n2)CCCC1 [Example 271, {1-[({6-[2,4-bis(trifluoromethyl)phenyl]pyridin-2-yl}methyl)amino]cyclopentyl}methano 1] |
| 0.42 | OCC1(NCc2cccc(-c3ccc(F)c(C(F)(F)F)c3)n2)CCCC1 [Example 268, {1-[({6-[4-fluoro-3-(trifluoromethyl)phenyl]pyridin-2-yl}methyl)amino]cyclopentyl}methanol] |
| > 20 | CCC(O)CNCc1ccnc(-c2ccc(C(F)(F)F)cc2)n1 (centres unmarked) [Example 181, 1-[({2-[4-(trifluoromethyl)phenyl]pyrimidin-4-yl}methyl)amino]butan-2-ol] |
| > 20 | CC(C)[C@H](CO)NCc1ccnc(-c2ccc(C(F)(F)F)cn2)n1 [Example 192, (2R)-3-methyl-2-[({2-[5-(trifluoromethyl)pyridin-2-yl]pyrimidin-4-yl}methyl)amino]butan-1-ol] |
| > 20 | C[C@H](O)CNCc1ccnc(-c2ccc(C(F)(F)F)cc2)n1 [Example 180, (2S)-1-[({2-[4-(trifluoromethyl)phenyl]pyrimidin-4-yl}methyl)amino]propan-2-ol] |
| 0.14 | CC(C)[C@H](CO)NCc1nc(-c2ccc(F)c(F)c2)ccc1F [Example 228, (2R)-2-({[6-(3,4-difluorophenyl)-3-fluoropyridin-2-yl]methyl}amino)-3-methylbutan-1-ol] |
| 0.44 | CC(C)[C@H](CO)NCc1cccc(-c2ccc(F)c(C#N)c2)n1 [Example 269, 2-fluoro-5-[6-({[(2R)-1-hydroxy-3-methylbutan-2-yl]amino}methyl)pyridin-2-yl]benzonitrile] |
| 0.77 | CCC1CCC(c2ccc(F)c(CN[C@@H](CO)C(C)C)n2)CC1 (stereo partly drawn) [Example 201, (2R)-2-({[6-(4-ethylcyclohexyl)-3-fluoropyridin-2-yl]methyl}amino)-3-methylbutan-1-ol] |
| 0.94 | CC(C)[C@H](CO)NCc1nc(-c2ccc(F)c(C#N)c2)ccc1F [Example 279, 2-fluoro-5-[5-fluoro-6-({[(2R)-1-hydroxy-3-methylbutan-2-yl]amino}methyl)pyridin-2-yl]benzonitrile] |
| 0.55 | CC(C)[C@H](CO)NCc1nc(-c2ccc(C(F)(F)F)cc2C(F)(F)F)ccc1F [Example 293, (2R)-2-[({6-[2,4-bis(trifluoromethyl)phenyl]-3-fluoropyridin-2-yl}methyl)amino]-3-methylbutan-1-ol] |
| 0.17 | CC(C)[C@H](CO)NCc1cccc(C#Cc2ccc(F)cc2)n1 [Example 264, (2R)-2-[({6-[(4-fluorophenyl)ethynyl]pyridin-2-yl}methyl)amino]-3-methylbutan-1-ol] |
| 6.16 | OC[C@H]1[C@H]2CC[C@H](C2)[C@H]1NCc1ccnc(-c2ccc(C(F)(F)F)cc2)n1 [Example 170, {(1S,2S,3R,4R)-3-[({2-[4-(trifluoromethyl)phenyl]pyrimidin-4-yl}methyl)amino]bicyclo[2.2.1]hept-2-yl]methanol] |
| 2.53 | C[C@@H](O)[C@@H](CO)NCc1ccnc(-c2ccc(S(=O)(=O)C(F)(F)F)cc2)n1 [Example 212, (2R,3R)-2-{[(2-{4-[(trifluoromethyl)sulfonyl]phenyl}pyrimidin-4-yl)methyl]amino}butane-1,3-diol] |
| 1.44 | CC(C)[C@H](CO)NCc1nc(-c2ccc3c(ccn3C)c2)ccc1F [Example 248, (2R)-2-({[3-fluoro-6-(1-methyl-1H-indol-5-yl)pyridin-2-yl]methyl}amino)-3-methylbutan-1-ol] |

Second part, the compound before the results:

| SMILES | IC50 [µM] |
| --- | --- |
| CC(C)[C@@H](NCc1nc(-c2ccc(C(F)(F)F)nc2)ccc1F)C(N)=O [Example 117, (R)-2-((5-fluoro-6′-(trifluoromethyl)-2,3′-bipyridin-6-yl)methylamino)-3-methylbutanamide] | > 20 |
| CC(C)[C@H](CO)NCc1nc(-c2ccc(Cl)nc2)ccc1F [Example 38, (2R)-2-{[(6′-chloro-5-fluoro-2,3′-bipyridin-6-yl)methyl]amino}-3-methylbutan-1-ol] | 2.85 |
| CC(C)[C@H](CO)NCc1cccc(-c2cccc([Si](C)(C)C)c2)n1 [Example 226, (2R)-3-methyl-2-[({6-[3-(trimethylsilyl)phenyl]pyridin-2-yl}methyl)amino]butan-1-ol] | 0.6 |
| CC(C)[C@H](CO)NCc1nc(-c2cnc(OCC(F)(F)F)nc2)ccc1F [Example 114, (2R)-2-[({3-fluoro-6-[2-(2,2,2-trifluoroethoxy)pyrimidin-5-yl]pyridin-2-yl}methyl)amino]-3-methylbutan-1-ol] | 2.33 |
| CC(C)Oc1ccc(-c2ccc(F)c(CN[C@@H](CO)C(C)C)n2)cc1F [Example 25, (2R)-2-[({3-fluoro-6-[3-fluoro-4-(propan-2-yloxy)phenyl]pyridin-2-yl}methyl)amino]-3-methylbutan-1-ol] | 0.65 |
| O[C@@H]1CCCC[C@@H]1CNCc1ccnc(-c2ccc(C(F)(F)F)cc2)n1 [Example 166, (1R,2R)-2-{[({2-[4-(trifluoromethyl)phenyl]pyrimidin-4-yl}methyl)amino]methyl}cyclohexanol] | > 20 |
| CC(C)[C@H](CO)NCc1nc(-c2cccc(N3CCOCC3)c2)ccc1F [Example 44, (2R)-2-[({3-fluoro-6-[3-(morpholin-4-yl)phenyl]pyridin-2-yl}methyl)amino]-3-methylbutan-1-ol] | 0.83 |
| CC(C)[C@H](CO)NCc1cccc(N2CCCCC2)n1 [Example 11, (2R)-3-methyl-2-({[6-(piperidin-1-yl)pyridin-2-yl]methyl}amino)butan-1-ol] | 1.94 |
| CC(C)[C@H](CO)NCc1cc(C(F)(F)F)cc(-c2ccc(C(F)(F)F)nc2)n1 [Example 118, (2R)-2-({[4,6′-bis(trifluoromethyl)-2,3′-bipyridin-6-yl]methyl}amino)-3-methylbutan-1-ol] | > 20 |
| CC(C)[C@H](NCc1nc(-c2ccc(C(F)(F)F)nc2)ccc1F)C(N)=O [Example 119, (S)-2-((5-fluoro-6′-(trifluoromethyl)-2,3′-bipyridin-6-yl)methylamino)-3-methylbutanamide] | > 20 |
| CC(C)Oc1cccc(-c2ccc(F)c(CN[C@@H](CO)C(C)C)n2)c1 [Example 24, (2R)-2-[({3-fluoro-6-[3-(propan-2-yloxy)phenyl]pyridin-2-yl}methyl)amino]-3-methylbutan-1-ol] | 0.75 |
| O[C@H]1CCCC[C@@H]1NCc1nc(-c2ccc(C(F)(F)F)nc2)ccc1F [Example 122, (1S,2S)-2-({[5-fluoro-6′-(trifluoromethyl)-2,3′-bipyridin-6-yl]methyl}amino)cyclohexanol] | 3.94 |
| CC(C)[C@H](CO)NCc1ccnc(-c2ccc(C(F)(F)F)cc2)n1 [Example 91, (2R)-3-methyl-2-[({2-[4-(trifluoromethyl)phenyl]pyrimidin-4-yl}methyl)amino]butan-1-ol] | > 20 |
| OC[C@@H](NCc1ccnc(-c2ccc(C(F)(F)F)cc2)n1)[C@H](O)c1ccccc1 [Example 154, (1R,2R)-1-phenyl-2-[({2-[4-(trifluoromethyl)phenyl]pyrimidin-4-yl}methyl)amino]propane-1,3-diol] | > 20 |
